The results in this text go back to US9856279B2 (AGIOS PHARMACEUTICALS, INC, priority 2011, dated 2018).

The target of one experiment is IDH1 R132H (Homo sapiens, UniProt O75874, R132H). As to the kind of experiment: Assay for IDH1 R132H inhibitors (NADPH/aKG, resazurin detection). Type of experiment: biochemical. The conditions noted are these: Table 3; enzyme assay, 50 minutes at room temperature; read-out: IC50 (IDH1 R132H Inhibition). An outline of the steps: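 Compound added to substrate mix (8 uM NADPH, 2 mM aKG), then enzyme mix (0.2 μg/ml IDH1 R132H); 50 min RT in 20 mM Tris pH 7.5, 150 mM NaCl, 10 mM MgCl2, 0.03% BSA. Resazurin detection mix (30 μM) 5 min RT; resorufin fluorescence Ex544/Em590.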
IDH1 R132H, sequence (O75874 whole entry R132H): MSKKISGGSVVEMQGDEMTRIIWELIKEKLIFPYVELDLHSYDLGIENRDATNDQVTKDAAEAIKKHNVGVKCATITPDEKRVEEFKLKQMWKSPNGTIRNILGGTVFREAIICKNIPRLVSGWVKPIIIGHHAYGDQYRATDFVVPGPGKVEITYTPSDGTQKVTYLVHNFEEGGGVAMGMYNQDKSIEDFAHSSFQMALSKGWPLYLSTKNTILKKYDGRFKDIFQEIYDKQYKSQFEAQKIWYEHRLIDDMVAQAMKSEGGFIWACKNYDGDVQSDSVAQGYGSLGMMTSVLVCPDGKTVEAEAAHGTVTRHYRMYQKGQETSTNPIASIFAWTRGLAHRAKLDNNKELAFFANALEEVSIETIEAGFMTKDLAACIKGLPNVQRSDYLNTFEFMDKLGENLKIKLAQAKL
As usually defined, the IC50 is the concentration that inhibits the measured activity by half. `COCCC(=O)N1CCN(c2nc(C3CC3)c(-c3ccc4c(c3)OCO4)c(C)c2C#N)C[C@H]1C` [Compound 261, (R)-5-(benzo[d][1,3]dioxol-5-yl)-6-cyclopropyl-2-(4-(3-methoxypropanoyl)-3-methylpiperazin-1-yl)-4-methylnicotinonitrile]: the IC50 is ≤ 1000 nM.
Turning to `COCCC(=O)N1CCN(c2nc(C(C)C)c(-c3cccc(F)c3)cc2C#N)C[C@H]1C` [Compound 231, (R)-5-(3-fluorophenyl)-6-isopropyl-2-(4-(3-methoxypropanoyl)-3-methylpiperazin-1-yl)nicotinonitrile], the IC50 lay in the range of 1000 to 5000 nM.
Take `COCCC(=O)N1CCN(c2nc(C(C)C)c(-c3ccc4ccccc4c3)cc2C#N)C[C@H]1C` [Compound 211, (R)-6-isopropyl-2-(4-(3-methoxypropanoyl)-3-methylpiperazin-1-yl)-5-(naphthalen-2-yl)nicotinonitrile]: the IC50 lay in the range of 1000 to 5000 nM.
As to `CC(C)c1nc(N2CCN(C(=O)c3c[nH]c4ccccc34)CC2)c(C#N)cc1-c1ccccc1` [Compound 125, 2-(4-(1H-indole-3-carbonyl)piperazin-1-yl)-6-isopropyl-5-phenylnicotinonitrile], the IC50 lay within 5000 to 15000 nM.
With `COCCC(=O)N1CCN(c2nc(C(C)C)c(-c3cccc(OC)c3)cc2C#N)C[C@H]1C` [Compound 212, (R)-6-isopropyl-5-(3-methoxyphenyl)-2-(4-(3-methoxypropanoyl)-3-methylpiperazin-1-yl)nicotinonitrile], the IC50 was ≤ 1000 nM.
Still for that read-out and setting: in the case of `CC(C)c1cc(-c2cccc(F)c2)c(C#N)c(N2CC(C)N(C(=O)Cc3ccccc3)C(C)C2)n1` (stereo not shown) [Compound 135, 2-(3,5-dimethyl-1-(2-phenylacetyl)piperazin-1-yl)-4-(3-fluorophenyl)-6-isopropylnicotinonitrile] it was 1000 to 5000 nM.
In the case of `CC(C)c1cc(-c2ccccc2)nc(N2CCN(C(=O)c3ccco3)CC2)c1C#N` [Compound 103, 2-(4-(furan-2-carbonyl)piperazin-1-yl)-4-isopropyl-6-phenylnicotinonitrile], the IC50 fell in the range of 5000 to 15000 nM.
Regarding `COCCC(=O)N1CCN(c2nc(C3CC3)c(-c3ccc(F)c(Cl)c3)cc2C#N)C[C@H]1C` [Compound 248, (R)-5-(3-chloro-4-fluorophenyl)-6-cyclopropyl-2-(4-(3-methoxypropanoyl)-3-methylpiperazin-1-yl)nicotinonitrile], the IC50 was ≤ 1000 nM.
Same read-out and setting: in the case of `CC(C)c1nc(N2CCN(C(=O)c3ccoc3)[C@H](C)C2)c(C#N)cc1-c1ccccc1` [Compound 150, (R)-2-(4-(furan-3-carbonyl)-3-methylpiperazin-1-yl)-6-isopropyl-5-phenylnicotinonitrile] it was 1000 to 5000 nM; in that of `COc1ccccc1-c1cc(C(C)C)nc(N2CCN(C(=O)c3ccoc3)[C@H](C)C2)c1C#N` [Compound 148, (R)-2-(4-(furan-3-carbonyl)-3-methylpiperazin-1-yl)-6-isopropyl-4-(2-methoxyphenyl)nicotinonitrile], 1000 to 5000 nM.
For `COCCC(=O)N1CCN(c2nc(C3CC3)c(-c3cccc(OC(F)(F)F)c3)cc2C#N)C[C@H]1C` [Compound 228, (R)-6-cyclopropyl-2-(4-(3-methoxypropanoyl)-3-methylpiperazin-1-yl)-5-(3-(trifluoromethoxy)phenyl)-nicotinonitrile], the IC50 fell in the range of 1000 to 5000 nM.
With `COc1ccccc1-c1cc(C#N)c(N2CCN(C(=O)c3ccco3)[C@H](C)C2)nc1C(C)C` [Compound 176, (R)-2-(4-(furan-2-carbonyl)-3-methylpiperazin-1-yl)-6-isopropyl-5-(2-methoxyphenyl)nicotinonitrile], the IC50 is 1000 to 5000 nM.
Still for that read-out and setting: in the case of `COCCC(=O)N1CCN(c2nc(C3CC3)c(-c3ccc(F)cc3F)cc2C#N)C[C@H]1C` [Compound 250, (R)-6-cyclopropyl-5-(2,4-difluorophenyl)-2-(4-(3-methoxypropanoyl)-3-methylpiperazin-1-yl)nicotinonitrile] it was ≤ 1000 nM; in that of `CC(C)c1nc(N2CCN(C(=O)Cc3ccccc3)C(C)C2)c(C#N)cc1-c1ccccc1` (stereo in doubt) [Compound 145, (R)-6-isopropyl-2-(3-methyl-4-(2-phenylacetyl)piperazin-1-yl)-5-phenylnicotinonitrile], 1000 to 5000 nM; in that of `COCCC(=O)N1CCN(c2nc(C3CC3)c(-c3ccc(OC)c(OC)c3)cc2C#N)C[C@H]1C` [Compound 237, (R)-6-cyclopropyl-5-(3,4-dimethoxyphenyl)-2-(4-(3-methoxypropanoyl)-3-methylpiperazin-1-yl)nicotinonitrile], 1000 to 5000 nM.
As for `CC(C)c1nc(N2CCN(C(=O)c3ccoc3)CC2)c(C#N)cc1-c1ccccc1` [Compound 124, 2-(4-(furan-3-carbonyl)piperazin-1-yl)-6-isopropyl-5-phenylnicotinonitrile], the IC50 was 5000 to 15000 nM.
On the same count and under the same terms, in the case of `Cc1cccc(-c2cc(C#N)c(N3CCN(C(=O)c4ccoc4C)[C@H](C)C3)nc2C(C)C)c1` [Compound 200, (R)-6-isopropyl-2-(3-methyl-4-(2-methylfuran-3-carbonyl)piperazin-1-yl)-5-m-tolylnicotinonitrile] it was 1000 to 5000 nM; in that of `CC(C)c1nc(N2CCN(C(=O)Cc3cccs3)[C@H](C)C2)c(C#N)cc1-c1ccc(C(F)(F)F)cc1` [Compound 188, (R)-6-isopropyl-2-(3-methyl-4-(2-(thiophen-2-yl)acetyl)piperazin-1-yl)-5-(4-(trifluoromethyl)phenyl)nicotinonitrile], 1000 to 5000 nM.

The experiment is the same for the next values; noted with them: enzyme assay of Example 12; read-out: IDH1R132H IC50.
For `N#CCn1cc(-c2cc(C#N)c(N3CCN(C(=O)C4CC4)[C@H](C4CC4)C3)nc2C2CC2)cn1` [Compound 486, (R)-5-(1-(cyanomethyl)-1H-pyrazol-4-yl)-2-(4-(cyclopropanecarbonyl)-3-cyclopropylpiperazin-1-yl)-6-cyclopropylnicotinonitrile], the IC50 lay in the range of 500 to 1000 nM.
Same read-out and setting: in the case of `COCCC(=O)N1CCN(c2nc(C3CC3)c(-c3cccc4nonc34)cc2C#N)C[C@H]1C` [Compound 437, (R)-5-benzo[1,2,5]oxadiazol-4-yl-6-cyclopropyl-2-[4-(3-methoxy-propionyl)-3-methyl-piperazin-1-yl]-nicotinonitrile] it was 500 to 1000 nM.
On the same count and under the same terms, in the case of `COCCC(=O)N1CCN(c2nc(C3CC3)c(-c3cccs3)cc2C#N)C[C@H]1C` [Compound 273, (R)-6-cyclopropyl-2-(4-(3-methoxypropanoyl)-3-methylpiperazin-1-yl)-5-(thiophen-2-yl)nicotinonitrile] it was 500 to 1000 nM; in that of `N#Cc1cncc(-c2cc(C#N)c(N3CCN(C(=O)CC(F)(F)F)[C@H](C4CC4)C3)nc2C2CC2)c1` [Compound 525, (R)-2-cyclopropyl-6-(3-cyclopropyl-4-(3,3,3-trifluoropropanoyl)piperazin-1-yl)-[3,3′-bipyridine]-5,5′-dicarbonitrile], < 500 nM.
Still for that read-out and setting: in the case of `COCCC(=O)N1CCN(c2nc(C3CC3)c(-c3c(OC)cccc3OC)cc2C#N)C[C@H]1C` [Compound 316, (R)-6-cyclopropyl-5-(2,6-dimethoxyphenyl)-2-(4-(3-methoxypropanoyl)-3-methylpiperazin-1-yl)nicotinonitrile] it was 500 to 1000 nM.
With `Cn1ncc(-c2cc(C#N)c(N3CCN(C(=O)C4CC4)[C@H](C4CC4)C3)nc2C2CC2)cc1=O` [Compound 640, (R)-2-(4-(cyclopropanecarbonyl)-3-cyclopropylpiperazin-1-yl)-6-cyclopropyl-5-(1-methyl-6-oxo-1,6-dihydropyridazin-4-yl)nicotinonitrile], the IC50 is < 500 nM.
Regarding `N#Cc1cc(-c2cnnc3ccccc23)c(C2CC2)nc1N1CCN(C(=O)C2CC2)[C@H](C2CC2)C1` [Compound 495, (R)-5-(cinnolin-4-yl)-2-(4-(cyclopropanecarbonyl)-3-cyclopropylpiperazin-1-yl)-6-cyclopropylnicotinonitrile], the IC50 lay within 500 to 1000 nM.
Consider `COCCC(=O)N1CCN(c2nc(C3CC3)c(-c3cccnc3OC)cc2C#N)C[C@H]1C` [Compound 328, (R)-2-cyclopropyl-2′-methoxy-6-[4-(3-methoxy-propionyl)-3-methyl-piperazin-1-yl]-[3,3]bipyridinyl-5-carbonitrile], for which the IC50 was < 500 nM.
On the same count and under the same terms, in the case of `C[C@@H]1CN(c2nc(C3CC3)c(-c3cccc4ncoc34)cc2C#N)CCN1C(=O)C1CC1` [Compound 482, (R)-5-(benzo[d]oxazol-7-yl)-2-(4-(cyclopropanecarbonyl)-3-methylpiperazin-1-yl)-6-cyclopropylnicotinonitrile] it was < 500 nM.
For `C=Cc1cc(-c2c(C3CC3)nc(N3CCN(C(=O)C=C4CCC4)[C@H](C4CC4)C3)c(C#N)c2C)ccn1` [Compound 820, (R)-6-(4-(2-cyclobutylideneacetyl)-3-cyclopropylpiperazin-1-yl)-2-cyclopropyl-4-methyl-2′-vinyl-3,4′-bipyridine-5-carbonitrile], the IC50 was < 500 nM.
Still for that read-out and setting: in the case of `C=Cc1cnnc(-c2c(C3CC3)nc(N3CCN(C(=O)C[C@@H]4CCO4)[C@H](C4CC4)C3)c(C#N)c2C)c1` [Compound 780, 6-cyclopropyl-2-((R)-3-cyclopropyl-4-(2-((S)-oxetan-2-yl)acetyl)piperazin-1-yl)-4-methyl-5-(5-vinylpyridazin-3-yl)nicotinonitrile] it was < 500 nM; in that of `N#Cc1cc(-c2cn[nH]c2)c(C2CC2)nc1N1CCN(C(=O)C2CC2)[C@H](C2CC2)C1` [Compound 479, (R)-2-(4-(cyclopropanecarbonyl)-3-cyclopropylpiperazin-1-yl)-6-cyclopropyl-5-(1H-pyrazol-4-yl)nicotinonitrile], 500 to 1000 nM; in that of `COCCC(=O)N1CCN(c2nc(C3CC3)c(-c3ccc4nnnn4c3)cc2C#N)C[C@H]1C` [Compound 370, (R)-6-cyclopropyl-2-[4-(3-methoxy-propionyl)-3-methyl-piperazin-1-yl]-5-tetrazolo[1,5-a]pyridin-6-yl-nicotinonitrile], 500 to 1000 nM.
